What was measured:
[1] = system: AM-binding protein; assay: Competitive displacement of 125I-AM on radioligand blot strips; conditions: increasing concentrations, 10^−10 to 10^−6 M
Method: Further detection and characterization of AM-BPs were performed using radioligand blotting procedures similar to those described for IGF binding proteins in plasma (P. Hossenlopp et al., 1986, Anal. Biochem. 154:138-146). Briefly, plasma or serum from the ten species was diluted 1:5 with water and further mixed 1:2 with SDS Tris-glycineglycerol loading buffer and incubated for 10 min at 70° C. Plasma or serum volumes equivalent to 1.5 μl were loaded onto 10% acrylamide gels under non-reducing conditions. Proteins were separated at 115 v for 0.5 hr and transferred to 0.2 μm nitrocellulose using a semi-moist transfer (Bio-Rad Hercules, Calif.) at 18 v for 42 min. Molecular weight markers (29 kD, 43 kD, 66 kD, 78 kD, and 116 kD) were added to complementary lanes on each gel to assess the relative sizes of the resolved proteins.
Nitrocellulose blots were incubated for 15 min with 1.5% NP-40 (Sigma, St. Louis, Mo.). Nonspecific binding was further blocked with a 4 hr incubation of the nitrocellulose in phosphate buffered saline containing either 1% BSA (RIA Grade, SIGMA, St. Louis, Mo.) or 1% AHC. Incubations with radiolabeled recombinant human ^125I-AM were performed overnight at room temperature with agitation, with 80,000 CPM ^125I-hAM per 5 ml protein blocking matrix. […]

[2] = target: T1, factor H (Homo sapiens, UniProt P08603); assay: Cofactor activity of factor H: C3b cleavage with factor I; type: biochemical; conditions: 24 hr at 37° C.
Method: FIG. 10 illustrates the effect of AM on factor H activity. C3b (104 kDa α′ chain and 71 kDa β chain) was incubated 24 hr at 37° C. with factor H, factor I, and various peptides. Cleavage of the C3b α′ chain produced three bands with molecular weights 68 kD, 43 kD, and 42 kD.
To measure the cofactor activity of factor H, C3b (28 pmols) was incubated with factor I (0.16 pmols) and factor H (0.16 pmols) in the presence or absence of AM and related peptides for 24 hr at 37° C. in a final volume of 50 μl of PBS. Samples were fractionated by SDS-PAGE using 4-12% Tris-Bis gels (Novex) under reducing conditions, and stained with Coomassie Blue. C3b and factor I were purchased from Advanced Research Technologies (San Diego, Calif.). FIGS. 10A and 10B.

[3] = target: T2, AMBP-1 (factor H) (Homo sapiens, UniProt P08603); assay: Ligand blot competition of labeled AM binding to plasma AMBP-1; conditions: 7 μM unlabeled peptide, preincubation 6 hr at 4° C.
T2 construct: Total proteins derived from human plasma (2 μl) were electrophoretically fractionated; from tissue; host or cells: human plasma
Method: Total proteins derived from human plasma (2 μl) were electrophoretically fractionated on 3-8% Tris-acetate gel (Novex, San Diego, Calif.) under non-reducing conditions. For the ligand blotting experiment, the proteins were transferred to a […] nitrocellulose membrane that was incubated for […] with 1% Nonidet P-40 (NP-40). Non-specific binding was further blocked with a 2 hr incubation in TBS containing 0.1% ATC. Incubations with 70 nM AM labeled with biotin, fluorescein, or DNP were carried out overnight at 4° C. in blocking buffer containing 0.1% TWEEN® 20 nonionic detergent. For biotin detection, the ligand blot was incubated with an avidin-biotin-peroxidase complex and the AEC reagent (Vector Laboratories, Inc., Burlingame, Calif.). For fluorescein and DNP, the ligand blots were incubated 1 hr at room temperature with rabbit anti-fluorescein or anti-DNP IgG, respectively, (1:1000 in incubation buffer; Molecular Probes, Inc.). Anti-rabbit antibody labeled with alkaline phosphatase (1:2000; Dako Corporation, Carpenteira, Calif.) was added for 0.5 hr, and the blot was developed using 4-nitro blue tetrazolium chloride/5-bromo-4-chloro-3-indolyl phosphate (NBT/BCIP) as the color-substrate solution (Roche Molecular Biochemicals, Indianapolis, Ind.).
Following this preincubation, labeled full-length AM was introduced and incubated overnight at 4° C.

[4] = target: T1, factor H; assay: Multi-well plate competition of fluorescein-labeled AM binding to factor H; parameters: purchased Sigma; conditions: 50 nM fluorescein-labeled AM; factor H 5 ng/well; increasing concentrations of unlabeled competitor
Method: Lane 1: horseradish peroxidase (5 μg), a glycosylated protein used as positive control; Lane 2: soybean trypsin inhibitor (5 μg), a non-glycosylated protein used as negative control; Lane 3: AMBP-1 (2 μg). […] Lane 1: isoelectric focusing markers; Lane 2: AMBP-1 (4 μg). […] Lane 1: AMBP-1 (100 ng); Lane 2: AMBP-1 (200 ng); Lane 3: commercially available human factor H (50 ng); Lane 4: human plasma (0.2 μl). […] Results represent one of two independent experiments. Values represent mean and standard deviation of three determinations. “B/B0” indicates the ratio of signals generated in the presence/absence of unlabeled competitor.
Alternatively, the AM/fH interaction was analyzed using a multi-well assay. In accordance with this assay, a 96-well polyvinylchloride (PVC) plate was coated with factor H (5 ng/well, Sigma, St. Louis, Mo.). The plate was blocked with a solution containing TBS, 0.1% ATC, and 0.1% TWEEN® 20 nonionic detergent, and then incubated with fluorescein-labeled AM (50 nM) for 2 hr. Prior to the development of the assay, the wells were incubated for various time periods with PBS or 3M NaSCN pH 7.4. Following this, the plate was washed and incubated with anti-fluorescein polyclonal antibody (1:1000, Molecular Probes) and ^125I-Protein A (Amersham Pharmacia Biotech). Radioactivity was determined using a gamma counter. FIG. 6B.

T1 sequence (P08603 19-1231): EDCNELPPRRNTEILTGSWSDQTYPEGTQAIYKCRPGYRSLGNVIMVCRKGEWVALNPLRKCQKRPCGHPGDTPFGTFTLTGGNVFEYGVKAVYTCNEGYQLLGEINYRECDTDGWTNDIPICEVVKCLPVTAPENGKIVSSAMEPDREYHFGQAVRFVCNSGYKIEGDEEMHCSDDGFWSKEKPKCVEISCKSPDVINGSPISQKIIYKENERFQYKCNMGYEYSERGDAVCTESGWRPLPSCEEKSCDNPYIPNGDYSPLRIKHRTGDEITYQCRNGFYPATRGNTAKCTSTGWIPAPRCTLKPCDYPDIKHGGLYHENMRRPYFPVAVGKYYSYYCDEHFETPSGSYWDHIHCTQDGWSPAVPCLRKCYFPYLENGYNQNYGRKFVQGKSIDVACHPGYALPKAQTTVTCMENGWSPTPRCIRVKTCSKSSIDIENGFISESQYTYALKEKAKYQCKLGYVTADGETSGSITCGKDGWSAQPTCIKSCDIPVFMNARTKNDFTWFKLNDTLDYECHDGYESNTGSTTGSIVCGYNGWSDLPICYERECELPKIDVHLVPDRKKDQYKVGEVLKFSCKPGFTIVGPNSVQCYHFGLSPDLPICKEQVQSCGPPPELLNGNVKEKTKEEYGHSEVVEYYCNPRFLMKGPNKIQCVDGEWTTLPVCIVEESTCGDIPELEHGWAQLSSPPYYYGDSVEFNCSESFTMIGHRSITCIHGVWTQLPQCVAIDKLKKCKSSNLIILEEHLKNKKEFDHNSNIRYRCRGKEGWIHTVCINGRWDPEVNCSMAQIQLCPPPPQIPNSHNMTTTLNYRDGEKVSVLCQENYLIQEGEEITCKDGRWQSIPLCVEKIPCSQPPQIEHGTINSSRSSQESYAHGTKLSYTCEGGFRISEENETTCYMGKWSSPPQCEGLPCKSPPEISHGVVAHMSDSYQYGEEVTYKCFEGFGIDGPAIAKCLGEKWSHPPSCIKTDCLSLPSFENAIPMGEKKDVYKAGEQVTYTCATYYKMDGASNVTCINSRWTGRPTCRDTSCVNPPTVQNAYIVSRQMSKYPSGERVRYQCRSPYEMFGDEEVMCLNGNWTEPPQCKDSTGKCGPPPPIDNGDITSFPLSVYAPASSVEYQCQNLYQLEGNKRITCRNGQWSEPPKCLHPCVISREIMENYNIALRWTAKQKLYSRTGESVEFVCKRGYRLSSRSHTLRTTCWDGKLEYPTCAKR
T2 sequence (P08603 19-1231): as above

- Displacement of 125I-AM from AMBPs [1]: linear competitive displacement
- Effect on fH/fI-mediated cleavage of C3b [2]: enhances fH/fI-mediated cleavage of C3b
- Effect on binding of fluorescein-labeled AM to factor H-coated plate [4]: competitively inhibited
SMILES: CC[C@H](C)[C@H](NC(=O)[C@H](CCC(N)=O)NC(=O)[C@H](Cc1c[nH]cn1)NC(=O)[C@H](C)NC(=O)[C@H](CC(C)C)NC(=O)[C@H](CCCCN)NC(=O)[C@H](CCC(N)=O)NC(=O)[C@@H](NC(=O)[C@@H](NC(=O)[C@@H]1CSSC[C@H](NC(=O)CNC(=O)[C@H](Cc2ccccc2)NC(=O)[C@H](CO)NC(=O)[C@H](CCCNC(=N)N)NC(=O)[C@H](CC(C)C)NC(=O)CNC(=O)[C@H](CCC(N)=O)NC(=O)[C@H](Cc2ccccc2)NC(=O)[C@H](CC(N)=O)NC(=O)[C@H](CC(N)=O)NC(=O)[C@H](CCSC)NC(=O)[C@H](CO)NC(=O)[C@H](CCC(N)=O)NC(=O)[C@H](CCCNC(=N)N)NC(=O)[C@@H](N)Cc2ccc(O)cc2)C(=O)N[C@@H](CCCNC(=N)N)C(=O)N[C@@H](Cc2ccccc2)C(=O)NCC(=O)N[C@@H]([C@@H](C)O)C(=O)N1)[C@@H](C)O)C(C)C)C(=O)N[C@@H](Cc1ccc(O)cc1)C(=O)N[C@@H](CCC(N)=O)C(=O)N[C@@H](Cc1ccccc1)C(=O)N[C@H](C(=O)N[C@@H](CC(=O)O)C(=O)N[C@@H](CCCCN)C(=O)N[C@@H](CC(=O)O)C(=O)N[C@@H](CCCCN)C(=O)N[C@@H](CC(=O)O)C(=O)N[C@@H](CC(N)=O)C(=O)N[C@H](C(=O)N[C@@H](C)C(=O)N1CCC[C@H]1C(=O)N[C@@H](CCCNC(=N)N)C(=O)N[C@@H](CO)C(=O)N[C@@H](CCCCN)C(=O)N[C@H](C(=O)N[C@@H](CO)C(=O)N1CCC[C@H]1C(=O)N[C@@H](CCC(N)=O)C(=O)NCC(=O)N[C@@H](Cc1ccc(O)cc1)C(N)=O)[C@@H](C)CC)C(C)C)[C@@H](C)O [AM, Adrenomedullin]
- Competition for labeled AM/AMBP-1 complex on ligand blot [3]: able to dissociate the AM/AMBP-1 (AM/fH) complex

Reference: patent publication US7659081B2, “Determination of AM-binding proteins and the association of adrenomedullin (AM) therewith” (The United States of America as represented by the …, priority 1999, dated 2010)
